# Data published in patent US12637465B2, “Pharmaceutically acceptable salts of sepiapterin” (PTC Therapeutics MP, Inc., priority 2018, dated 2026).
# Tests used:
# Type in all cases: physicochemical
# [1] = Solid form stability study of salts and/or co-crystals at 25° C./60% RH and 40° C./75% RH
# Description: The stability of the prepared salts and/or co-crystals was analyzed after 1 and 2 weeks at 25° C. and 60% relative humidity and 40° C. and 75% relative humidity. […] None of the phosphate, tartrate, or nicotinate salts and/or co-crystals underwent a form change during the stability testing, and each of them retained greater than 97% purity over the two weeks of the study. In fact, both the tartrate and nicotinate both retained greater than 99% purity.
# [2] = Kinetic solubility in water and Medisca Oral Mix (HPLC solubility, purity and pH of supernatant); settings: RT; for Purity (area %) of supernatant: for reference only; for Purity (area %) of supernatant / pH: listed as fumarate salt and/or co-crystal
# Description: (§1) The kinetic solubility was evaluated for nicotinate, phosphate, L-tartrate, and fumarate salts and/or co-crystals of sepiapterin in water and […] Oral Mix. X-ray powder diffraction (XRPD) was performed for the residual solids to identify form change/disproportionation. Solids were suspended into the media with target conc. of 7 mg/mL (calculated by freebase).
# [3] = Form change/disproportionation of residual solids by XRPD after suspension in water or Medisca Oral Mix; settings: for Form change (residual solids, XRPD): RT
# Description: as §1, with “freebase). […] Oral Mix after 1 hour. […] Oral Mix.” for “freebase).”
smiles,measurement,setting,value
"C[C@H](O)C(=O)C1=Nc2c(nc(N)[nH]c2=O)NC1 [Benzenesulfonate, sepiapterin]",Purity (Area %),"[1]; 1 week, 25° C./60% RH",90.68 Area %
same,Purity vs. initial (%),"[1]; 1 week, 25° C./60% RH",100.5%
same,Purity (Area %),"[1]; 1 week, 40° C./75% RH",82.63 Area %
same,Purity vs. initial (%),"[1]; 1 week, 40° C./75% RH",91.6%
same,Purity (Area %),"[1]; 2 weeks, 25° C./60% RH",86.37 Area %
same,Purity vs. initial (%),"[1]; 2 weeks, 25° C./60% RH",95.8%
same,Purity (Area %),"[1]; 2 weeks, 40° C./75% RH",82.65 Area %
same,Purity vs. initial (%),"[1]; 2 weeks, 40° C./75% RH",91.6%
same,Purity (Area %),[1]; Initial,90.20 Area %
"C[C@H](O)C(=O)C1=Nc2c(nc(N)[nH]c2=O)NC1 [Fumarate, sepiapterin]",Stability in the solid form stability study of Example 2,[1],high stability
same,Form change,"[1]; 1 week, 25° C./60% RH",No
same,Purity (Area %),"[1]; 1 week, 25° C./60% RH",99.39 Area %
same,Purity vs. initial (%),"[1]; 1 week, 25° C./60% RH",99.9%
same,Form change,"[1]; 1 week, 40° C./75% RH",No
same,Purity (Area %),"[1]; 1 week, 40° C./75% RH",99.15 Area %
same,Purity vs. initial (%),"[1]; 1 week, 40° C./75% RH",99.7%
same,Purity (Area %),"[1]; 2 weeks, 25° C./60% RH",99.25 Area %
same,Purity vs. initial (%),"[1]; 2 weeks, 25° C./60% RH",99.7%
same,Purity (Area %),"[1]; 2 weeks, 40° C./75% RH",98.98 Area %
same,Purity vs. initial (%),"[1]; 2 weeks, 40° C./75% RH",99.5%
same,Purity (Area %),[1]; Initial,99.46 Area %
same,Observation,"[2]; Medisca Oral Mix, 1 hr",Turbid
same,Purity (area %) of supernatant,"[2]; Medisca Oral Mix, 1 hr",99.74 area %
same,pH,"[2]; Medisca Oral Mix, 1 hr",4.0
same,Observation,"[2]; Medisca Oral Mix, 4 hr",Turbid
same,Purity (area %) of supernatant,"[2]; Medisca Oral Mix, 4 hr",99.60 area %
same,pH,"[2]; Medisca Oral Mix, 4 hr",4.0
same,Observation,"[2]; Medisca Oral Mix, 24 hr",Turbid
same,Purity (area %) of supernatant,"[2]; Medisca Oral Mix, 24 hr",96.54 area %
same,pH,"[2]; Medisca Oral Mix, 24 hr",4.0
same,Observation,"[2]; Water, 1 hr",Turbid
same,Purity (area %) of supernatant,"[2]; Water, 1 hr",98.39 area %
same,pH,"[2]; Water, 1 hr",3.1
same,Observation,"[2]; Water, 4 hr",Turbid
same,Purity (area %) of supernatant,"[2]; Water, 4 hr",98.19 area %
same,pH,"[2]; Water, 4 hr",3.1
same,Observation,"[2]; Water, 24 hr",Turbid
same,Purity (area %) of supernatant,"[2]; Water, 24 hr",95.43 area %
same,pH,"[2]; Water, 24 hr",3.1
same,Disproportionation in the disproportionation study,[3],no evidence of disproportionation
same,"Form change (residual solids, XRPD)","[3]; Medisca Oral Mix, 1 hr, listed as fumarate salt and/or co-crystal",No **
same,"Form change (residual solids, XRPD)","[3]; Medisca Oral Mix, 4 hr, listed as fumarate salt and/or co-crystal",No **
same,"Form change (residual solids, XRPD)","[3]; Medisca Oral Mix, 24 hr, listed as fumarate salt and/or co-crystal",No **
same,Form of the residual solids in Medisca Oral Mix,"[3]; Medisca Oral Mix, after 1 hour, listed as fumarate salt and/or co-crystal",crystallinity of residual solids decreased
same,"Form change (residual solids, XRPD)","[3]; Water, 1 hr, listed as fumarate salt and/or co-crystal",No
same,"Form change (residual solids, XRPD)","[3]; Water, 4 hr, listed as fumarate salt and/or co-crystal",No
same,"Form change (residual solids, XRPD)","[3]; Water, 24 hr, listed as fumarate salt and/or co-crystal",No
same,Form of the residual solids in water,"[3]; water, after 1 hour, listed as fumarate salt and/or co-crystal",no form change was observed
"C[C@H](O)C(=O)C1=Nc2c(nc(N)[nH]c2=O)NC1 [Gentisate, sepiapterin]",Purity (Area %),"[1]; 1 week, 25° C./60% RH",97.66 Area %
same,Purity vs. initial (%),"[1]; 1 week, 25° C./60% RH",103.5%
same,Purity (Area %),"[1]; 1 week, 40° C./75% RH",96.89 Area %
same,Purity vs. initial (%),"[1]; 1 week, 40° C./75% RH",102.7%
same,Purity (Area %),"[1]; 2 weeks, 25° C./60% RH",97.00 Area %
same,Purity vs. initial (%),"[1]; 2 weeks, 25° C./60% RH",102.8%
same,Purity (Area %),"[1]; 2 weeks, 40° C./75% RH",93.37 Area %
same,Purity vs. initial (%),"[1]; 2 weeks, 40° C./75% RH",102.1%
same,Purity (Area %),[1]; Initial,94.35 Area %
"C[C@H](O)C(=O)C1=Nc2c(nc(N)[nH]c2=O)NC1 [Glycolate, sepiapterin]",Purity (Area %),"[1]; 1 week, 25° C./60% RH",98.93 Area %
same,Purity vs. initial (%),"[1]; 1 week, 25° C./60% RH",99.7%
same,Purity (Area %),"[1]; 1 week, 40° C./75% RH",98.54 Area %
same,Purity vs. initial (%),"[1]; 1 week, 40° C./75% RH",99.3%
same,Purity (Area %),"[1]; 2 weeks, 25° C./60% RH",98.86 Area %
same,Purity vs. initial (%),"[1]; 2 weeks, 25° C./60% RH",99.7%
same,Purity (Area %),"[1]; 2 weeks, 40° C./75% RH",98.52 Area %
same,Purity vs. initial (%),"[1]; 2 weeks, 40° C./75% RH",99.3%
same,Purity (Area %),[1]; Initial,99.19 Area %
"C[C@H](O)C(=O)C1=Nc2c(nc(N)[nH]c2=O)NC1 [HCI, sepiapterin]",Form change,"[1]; 1 week, 25° C./60% RH",No
same,Purity (Area %),"[1]; 1 week, 25° C./60% RH",97.19 Area %
same,Purity vs. initial (%),"[1]; 1 week, 25° C./60% RH",103.5%
same,Form change,"[1]; 1 week, 40° C./75% RH",No
same,Purity (Area %),"[1]; 1 week, 40° C./75% RH",89.25 Area %
same,Purity vs. initial (%),"[1]; 1 week, 40° C./75% RH",95.0%
same,Form change,"[1]; 2 weeks, 25° C./60% RH",No
same,Purity (Area %),"[1]; 2 weeks, 25° C./60% RH",91.84 Area %
same,Purity vs. initial (%),"[1]; 2 weeks, 25° C./60% RH",97.8%
same,Form change,"[1]; 2 weeks, 40° C./75% RH",No
same,Purity (Area %),"[1]; 2 weeks, 40° C./75% RH",84.16 Area %
same,Purity vs. initial (%),"[1]; 2 weeks, 40° C./75% RH",89.6%
same,Purity (Area %),[1]; Initial,93.94 Area %
